According to EP3319959B1, “HETERO-HALO INHIBITORS OF HISTONE DEACETYLASE” (Alkermes, Inc., priority 2015, dated 2017):

What was measured:
HDAC1 = HDAC1 (Homo sapiens, UniProt Q13547); assay: Reporter displacement assay (HDAC1); type: binding
HDAC2 [1] = biological target: T1, HDAC2 (Homo sapiens, UniProt Q92769); assay: Reporter displacement assay (HDAC2); type: binding; settings: 20 nM HDAC2, 180 nM reporter probe, read after 4 hours; Kd by Cheng Prusoff equation
T1 construct: purchased Proteros
T1 sequence (Q92769 whole entry): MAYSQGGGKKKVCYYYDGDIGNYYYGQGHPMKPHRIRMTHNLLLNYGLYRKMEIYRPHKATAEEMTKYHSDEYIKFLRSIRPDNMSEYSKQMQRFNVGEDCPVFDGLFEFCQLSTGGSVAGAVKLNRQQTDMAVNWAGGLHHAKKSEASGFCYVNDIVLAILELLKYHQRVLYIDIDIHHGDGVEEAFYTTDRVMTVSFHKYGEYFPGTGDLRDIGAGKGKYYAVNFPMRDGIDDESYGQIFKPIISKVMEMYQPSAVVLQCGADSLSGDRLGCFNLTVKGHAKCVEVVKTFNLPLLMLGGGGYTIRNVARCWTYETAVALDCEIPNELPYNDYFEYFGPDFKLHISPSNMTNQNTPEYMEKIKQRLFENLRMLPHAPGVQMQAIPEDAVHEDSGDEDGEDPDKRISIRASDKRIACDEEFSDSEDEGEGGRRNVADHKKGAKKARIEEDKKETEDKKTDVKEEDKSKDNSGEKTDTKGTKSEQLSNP
Procedure: HDAC2 containing a C-terminal HIS-Tag (Proteros) and fluorescently-labeled anti-HIS-antibody are diluted in one vial in assay buffer 50 mM Tris, pH 8.0, 1 mM DTT, 150 mM NaCl, and 0.01% Tween20. Components are pre-incubated for 30 min, then a small volume of reporter probe (Proteros) is added from a highly concentrated stock and incubation is continued for another 30 min. […] Ten µl/well of pre-formed complex are transferred into 384 well assay plates (Corning). Compounds to be profiled are serially diluted from 1x10^1 - 5.7x10^-5 mM in DMSO and 60 nl are added to assay plates by pintool transfer (CybiWell, Cybio). Fluorescence intensity signal is read after 4 hours in a Pherastar FS (BMG Labtech) at 337/665 nm. For Kd determination, percent probe displacement values are calculated for each compound concentration and plotted against the compound concentration. […] Since the reporter probe is used at a concentration reflecting its own Kd value, compound Kd values can be calculated according to the Cheng Prusoff equation. […] Table 4. HDAC1 and HDAC2 Kd Values for Exemplary Compounds Useful in the Invention

HDAC2 [2] = biological target: T1, HDAC2; assay: Reporter displacement assay (HDAC2); type: binding
SH-SY5Y cells = assay: Cell assay in SH-SY5Y cells with HDAC-Glo 2 reagent; type: cell-based; settings: Homo sapiens, 5 h, five hours at 37°C, CI-994 at 100 uM defined as 100% inhibition
Procedure: SH-SY5Y cells (Sigma) were cultured in Eagle's Modified Essential Medium supplemented with 10% fetal bovine serum and pen/strep. Twenty-four hours prior to compound dosing 20 uL of cells were plated in white 384 well plates at a density of 1,500 cells/well. Compounds were serially diluted in neat DMSO and then diluted 1:100 v/v into media without FBS and mixed. Media was removed from the plated cells and the diluted compounds in serum free media (1% v/v final DMSO) were added and incubated at 37°C for five hours. Ten uL of HDAC-Glo 2 reagent with 0.1% Triton X-100 was then added, the plate was mixed and allowed to develop at room temperature for 100 minutes. Plates were then read with a Spectramax LMax luminometer employing a 0.4s integration time. Dose response curves were constructed with normalized data where CI-994 at 100 uM was defined as 100% inhibition and DMSO alone as 0% inhibition. Table 5. IC50 and EC50 Values for Exemplary Compounds Useful in the Invention

recombinant human HDACs = assay: HDAC enzymatic assay (LabChip capillary electrophoresis); type: biochemical; settings: 5 nM HDAC enzyme, 1 uM substrate, 5 hours pre-incubation, 17 hours reaction at 25°C; isoform not given
Summary of the method: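 Recombinant human HDAC (5 nM) was pre-incubated with compound for 5 h at 25 °C, then reacted with 1 µM FAM-TSRHK(Ac)KL substrate for 17 h at 25 °C in HEPES pH 7.5, 1% DMSO. Reactions were stopped with SDS, and substrate and product were separated by capillary electrophoresis and read as P/(S+P). IC50 was fitted by 4-parameter logistic from 12-point 3-fold dilutions starting at 30 µM, run in duplicate.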

Chain of HDAC1 (Q13547 whole entry): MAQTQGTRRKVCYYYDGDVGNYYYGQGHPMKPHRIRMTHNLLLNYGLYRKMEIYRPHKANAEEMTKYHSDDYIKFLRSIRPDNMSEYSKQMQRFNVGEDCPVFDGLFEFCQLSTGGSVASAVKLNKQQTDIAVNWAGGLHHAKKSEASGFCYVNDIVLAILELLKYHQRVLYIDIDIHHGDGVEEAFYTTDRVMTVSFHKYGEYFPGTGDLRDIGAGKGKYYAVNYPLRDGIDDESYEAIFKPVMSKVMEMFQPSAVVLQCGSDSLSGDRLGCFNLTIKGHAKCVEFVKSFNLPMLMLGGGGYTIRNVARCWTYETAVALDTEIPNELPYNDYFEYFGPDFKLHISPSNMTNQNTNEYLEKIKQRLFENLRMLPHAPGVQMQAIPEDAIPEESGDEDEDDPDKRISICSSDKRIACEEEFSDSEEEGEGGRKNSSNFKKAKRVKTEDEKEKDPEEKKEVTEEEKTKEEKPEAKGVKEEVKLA

Row | Kd (HDAC1) | residence time (HDAC1) | Kd (HDAC2 [1]) | residence time (HDAC2 [2]) | EC50 (SH-SY5Y cells) | IC50 (recombinant human HDACs) | SMILES
1 | > 5000 nM | 121 min | > 5000 nM |  |  |  | Nc1cnc(-c2ccc(F)cc2)cc1NC(=O)C1CCOCC1 [Compound 106]
2 | 500 to 5000 nM | 87 min | 500 to 5000 nM | 114 min |  |  | Nc1cc(F)c(-c2ccc(F)c(F)c2)cc1NC(=O)N1CCCC1 [Compound 116]
3 | 100 to 500 nM | 329 min | 100 to 500 nM | 790 min |  |  | Nc1ccc(-c2ccc(F)cc2)c(F)c1NC(=O)N1CCCC1 [Compound 112]
4 | 500 to 5000 nM | 851 min | 500 to 5000 nM | 634 min |  |  | Nc1cnc(-c2ccc(F)cc2)cc1NC(=O)N1CCCC1 [Compound 105]
5 | 500 to 5000 nM | 688 min | > 5000 nM |  |  |  | Nc1cnc(-c2ccc(F)cc2)nc1NC(=O)N1CCCC1 [Compound 110]
6 | > 5000 nM |  | > 5000 nM |  |  |  | Nc1nn(-c2ccncc2)cc1NC(=O)N1Cc2ccncc2C1 [Compound 103]
7 | 500 to 5000 nM | 682 min | > 5000 nM | 1200 min |  |  | Nc1cnc(-c2ccc(F)cc2)nc1NC(=O)N1Cc2nccnc2C1 [Compound 121]
8 | > 5000 nM |  | > 5000 nM | 42 min |  |  | Nc1ccc(-c2ccc(F)c(F)c2)c(F)c1NC(=O)N1CCCC1 [Compound 117]
9 | 500 to 5000 nM | 653 min | 500 to 5000 nM | 1280 min |  |  | Nc1ccc(-c2ccc(F)cc2)nc1NC(=O)N1CCCC1 [Compound 107]
10 | > 5000 nM | 49 min | > 5000 nM |  |  |  | Nc1cc(F)c(-c2ccc(F)cc2)cc1NC(=O)N1CCCC1 [Compound 114]
11 |  |  |  |  | > 5000 nM | > 5000 nM | CN1CC(CN2C[C@@H]3[C@H](C2)[C@H]3C(=O)Nc2nc(-c3ccc(F)cc3)ccc2N)C1 [Compound 268]
12 | > 5000 nM | 151 min | > 5000 nM | 540 min |  |  | Nc1ccc(-c2ccncc2)nc1NC(=O)N1CCCC1 [Compound 111]

Continued, molecule first:

Row | SMILES | Kd (HDAC1) | residence time (HDAC1) | Kd (HDAC2 [1]) | residence time (HDAC2 [2]) | EC50 (SH-SY5Y cells) | IC50 (recombinant human HDACs)
13 | Nc1ccc(-c2ccc(F)cc2)nc1NC(=O)C1CCOCC1 [Compound 109] | > 5000 nM | 14 min | 500 to 5000 nM | 264 min |  | 
14 | Nc1ncc(-c2ccc(F)cc2)cc1NC(=O)N1CC2CCCC2C1 (centres unmarked) [Compound 104] | > 5000 nM |  | > 5000 nM |  |  | 
15 | Nc1cnc(-c2ccncc2)cc1NC(=O)N1CCCC1 [Compound 108] | 500 to 5000 nM | 401 min | 500 to 5000 nM | 1430 min |  | 
16 | Nc1ccc(-c2ccc(F)cc2)c(F)c1NC(=O)C1CCOCC1 [Compound 118] | 500 to 5000 nM | 69 min | 500 to 5000 nM | 176 min |  | 
17 | Nc1ccc(-c2ccc(F)cc2)c(F)c1NC(=O)N1Cc2nccnc2C1 [Compound 113] | < 100 nM | 350 min | 100 to 500 nM | 609 min |  | 
18 | Nc1cn(-c2ccccc2)nc1NC(=O)N1Cc2ccncc2C1 [Compound 122] | 100 to 500 nM | 572 min | 100 to 500 nM | 2380 min |  | 
19 | Nc1cc(F)c(-c2ccc(F)cc2)cc1NC(=O)C1CCOCC1 [Compound 115] | > 5000 nM |  | 500 to 5000 nM | 185 min |  | 
20 | Nc1ccc(-c2ccc(F)cc2)nc1NC(=O)N1Cc2nccnc2C1 [Compound 120] | 100 to 500 nM | 830 min | 500 to 5000 nM | 1170 min |  | 
21 | Nc1nn(-c2ccc(F)cc2)cc1NC(=O)N1Cc2ccncc2C1 [Compound 102] | > 5000 nM |  | > 5000 nM |  |  | 
22 | Nc1nn(-c2ccccc2)cc1NC(=O)N1Cc2ccncc2C1 [Compound 101] | > 5000 nM |  | > 5000 nM |  |  | 
23 | Nc1ccc(-c2ccc(F)cc2)nc1NC(=O)N1Cc2cc(CN3CC(F)C3)cnc2C1 [Compound 275] |  |  |  |  | 100 to 500 nM | 100 to 500 nM
24 | Nc1ccc(-c2cccnc2)nc1NC(=O)N1Cc2ccc(CO)cc2C1 [Compound 395] |  |  |  |  | 500 to 5000 nM | > 5000 nM
25 | Nc1ccc(-c2ccc(F)cc2)nc1NC(=O)N1Cc2cc(CN3CCC(F)(F)C3)cnc2C1 [Compound 273] |  |  |  |  | 100 to 500 nM | 100 to 500 nM
26 | Nc1cc(F)c(-c2ccc(F)cc2)cc1NC(=O)N1Cc2nccnc2C1 [Compound 119] | 100 to 500 nM | 126 min | 100 to 500 nM | 1200 min |  | 
27 | Nc1cc(F)c(-c2ccc(F)cc2)cc1NC(=O)N1Cc2ccncc2C1 [Compound 100] | 100 to 500 nM | 196 min | 100 to 500 nM | 703 min |  | 
28 | CN1CCC(c2cc3c(cn2)CN(C(=O)Nc2nc(-c4ccc(F)cc4)ccc2N)C3)CC1 [Compound 149] |  |  |  |  | 100 to 500 nM | 100 to 500 nM
